Among the data in patent US20230339891A1, “URACIL DERIVATIVES AS MER-AXL INHIBITORS” (BRISTOL-MYERS SQUIBB COMPANY, priority 2018, published 2023) are IC50 values, retold here.

One experiment deals with GST-MERTK 578-872 (Homo sapiens (Human), UniProt Q12866). The experiment can be described thus: MERTK kinase homogeneous time resolved fluorescence (HTRF) binding assay. Particulars: 1 nM kinase, fluorescein-labeled kinase tracer at Kd, 60 minutes at room temperature; read-out: Mer HTRF IC50. Put shortly:
(§1)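 HTRF binding read-out after 60 min at room temperature, expressed as the 520/495 nm (fluorescein/terbium) ratio. Inhibition normalized to no-protein (100%) and vehicle (0%) controls. IC50 from 11-point dose-response; compounds from 10 mM DMSO stocks.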
A general note: In TR-FRET formats the signal depends on donor and acceptor labels being close together.

The target in another experiment is HIS-AXL 473-End (Homo sapiens (Human), UniProt P30530). The experiment in a line: AXL kinase homogeneous time resolved fluorescence (HTRF) binding assay. Particulars: 1 nM kinase, fluorescein-labeled kinase tracer at Kd, 60 minutes at room temperature. Put shortly: as §1
HIS-AXL 473-End, sequence (P30530 473-894): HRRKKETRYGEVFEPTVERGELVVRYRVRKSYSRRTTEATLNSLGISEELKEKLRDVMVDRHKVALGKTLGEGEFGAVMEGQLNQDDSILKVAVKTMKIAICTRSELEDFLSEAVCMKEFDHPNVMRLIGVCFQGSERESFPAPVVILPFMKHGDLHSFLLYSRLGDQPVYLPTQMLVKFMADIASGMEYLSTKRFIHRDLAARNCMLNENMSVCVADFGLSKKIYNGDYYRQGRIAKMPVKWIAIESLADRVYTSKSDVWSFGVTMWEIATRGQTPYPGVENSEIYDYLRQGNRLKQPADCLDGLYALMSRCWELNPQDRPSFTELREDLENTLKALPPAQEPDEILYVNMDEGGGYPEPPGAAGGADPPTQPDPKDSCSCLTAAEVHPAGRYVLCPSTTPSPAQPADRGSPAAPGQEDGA

GST-MERTK 578-872, sequence (Q12866 578-872): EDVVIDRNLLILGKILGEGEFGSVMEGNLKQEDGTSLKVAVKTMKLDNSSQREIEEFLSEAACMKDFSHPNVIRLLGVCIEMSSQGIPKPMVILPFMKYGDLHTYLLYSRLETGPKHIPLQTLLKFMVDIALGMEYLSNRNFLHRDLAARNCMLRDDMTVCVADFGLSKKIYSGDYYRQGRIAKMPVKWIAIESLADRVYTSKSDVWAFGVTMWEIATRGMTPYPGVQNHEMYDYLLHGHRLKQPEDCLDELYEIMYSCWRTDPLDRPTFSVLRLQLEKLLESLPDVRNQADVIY

One may read the IC50 as the point on the concentration scale where inhibition reaches its midpoint. `CC(C)n1cc(C(=O)Nc2ccc(Oc3ccnc(Nc4ccnc(N5CCC(S(C)(=O)=O)CC5)n4)c3)c(F)c2)c(=O)n(C23CC(C2)C3)c1=O` [Example 113]: the IC50 at GST-MERTK 578-872 worked out at 2.8 nM; on HIS-AXL 473-End, 4.8 nM.
For `CC(C)n1cc(C(=O)Nc2ccc(Oc3ccnc(Nc4ccnc(N5CCC(S(C)(=O)=O)CC5)n4)c3)c(F)c2)c(=O)n(-c2ccc(F)cc2)c1=O` [Example 114], the IC50 was 1.4 nM on GST-MERTK 578-872 and 0.6 nM at HIS-AXL 473-End.
Consider `Cc1cnc(Nc2ccnc(N3CCC(S(C)(=O)=O)CC3)n2)cc1Oc1ccc(NC(=O)c2cn(C(C)C)c(=O)n(-c3ccccc3)c2=O)cc1` [Example 115, N-{4-[(2-{[2-(4-methanesulfonylpiperidin-1-yl)pyrimidin-4-yl]amino}-5-methylpyridin-4-yl)oxy]phenyl}-2,4-dioxo-3-phenyl-1-(propan-2-yl)-1,2,3,4-tetrahydropyrimidine-5-carboxamide], for which the IC50 at GST-MERTK 578-872 worked out at 810 nM; on HIS-AXL 473-End, 41 nM.
For the molecule `CC(C)n1cc(C(=O)Nc2ccc(Oc3ccnc(Nc4ccc(C#N)c(N5CCN(S(C)(=O)=O)CC5)n4)c3)c(F)c2)c(=O)n(-c2ccc(F)cc2)c1=O` [Example 116, N-{4-[(2-{[5-cyano-6-(4-methanesulfonylpiperazin-1-yl)pyridin-2-yl]amino}pyridin-4-yl)oxy]-3-fluorophenyl}-3-(4-fluorophenyl)-2,4-dioxo-1-(propan-2-yl)-1,2,3,4-tetrahydropyrimidine-5-carboxamide], the IC50 on GST-MERTK 578-872 turned out to be 1 nM; on HIS-AXL 473-End, 1.5 nM.
On to `CC(C)n1cc(C(=O)Nc2ccc(Oc3ccnc(Nc4ccc(C#N)c(N5CCCC5)n4)c3)c(F)c2)c(=O)n(-c2ccc(F)cc2)c1=O` [Example 117], for which the IC50 amounted to 2.8 nM at GST-MERTK 578-872 and 3 nM at HIS-AXL 473-End.
On to `CC(C)n1cc(C(=O)Nc2ccc(Oc3ccnc(Nc4ccc(C#N)c(N5CC[C@H](O)C5)n4)c3)c(F)c2)c(=O)n(-c2ccc(F)cc2)c1=O` [Example 118], for which the values for the IC50 at GST-MERTK 578-872 and at HIS-AXL 473-End were 1.5 nM and 1.4 nM, respectively.
As for `COC(=O)N1CCN(c2nc(Nc3cc(Oc4ccc(NC(=O)c5cn(C(C)C)c(=O)n(-c6ccc(F)cc6)c5=O)cc4F)ccn3)ccc2C#N)CC1` [Example 119], the IC50 on GST-MERTK 578-872 was found to be 1.5 nM; at HIS-AXL 473-End, 4.2 nM.
For `CC(C)n1cc(C(=O)Nc2ccc(Oc3ccnc(Nc4ccc(C#N)c(N5CCC(O)CC5)n4)c3)c(F)c2)c(=O)n(-c2ccc(F)cc2)c1=O` [Example 120], the IC50 at GST-MERTK 578-872 was 1.6 nM; at HIS-AXL 473-End, 1.1 nM.
In the case of `COC1CCN(c2nc(Nc3cc(Oc4ccc(NC(=O)c5cn(C(C)C)c(=O)n(-c6ccc(F)cc6)c5=O)cc4F)ccn3)ccc2C#N)CC1` [Example 121], the values for the IC50 at GST-MERTK 578-872 and at HIS-AXL 473-End were 2.4 nM and 3.9 nM, respectively.
Consider `CC(C)n1cc(C(=O)Nc2ccc(Oc3ccnc(Nc4ccc(C#N)c(N5CCC(O)(C(F)(F)F)CC5)n4)c3)c(F)c2)c(=O)n(-c2ccc(F)cc2)c1=O` [Example 122], for which the results for the IC50 at GST-MERTK 578-872 and on HIS-AXL 473-End were 6 nM and 9.8 nM, respectively.
On to `CC(C)n1cc(C(=O)Nc2ccc(Oc3ccnc(Nc4ccc(C#N)c(N5CCC(S(C)(=O)=O)CC5)n4)c3)c(F)c2)c(=O)n(-c2ccc(F)cc2)c1=O` [Example 123], for which the IC50 on GST-MERTK 578-872 came out at 1.8 nM; at HIS-AXL 473-End, 1.4 nM.
Regarding `CC(C)n1cc(C(=O)Nc2ccc(Oc3ccnc(Nc4ccc(C#N)c(N5CCC(S(C)(=O)=O)C5)n4)c3)c(F)c2)c(=O)n(-c2ccc(F)cc2)c1=O` (centres unmarked) [Example 124], the IC50 turned out to be 2.9 nM on GST-MERTK 578-872 and 2 nM on HIS-AXL 473-End.
As for `CC(C)n1cc(C(=O)Nc2ccc(Oc3ccnc(Nc4ccc(C#N)c(N5CCN(S(C)(=O)=O)[C@H](C)C5)n4)c3)c(F)c2)c(=O)n(-c2ccc(F)cc2)c1=O` [Example 125], the IC50 came out at 2.2 nM at GST-MERTK 578-872 and 1.3 nM on HIS-AXL 473-End.
Turning to `CC(C)n1cc(C(=O)Nc2ccc(Oc3ccnc(Nc4nc(N5CCN(S(C)(=O)=O)CC5)ccc4F)c3)c(F)c2)c(=O)n(-c2ccc(F)cc2)c1=O` [Example 135, N-{3-fluoro-4-[(2-{[3-fluoro-6-(4-methanesulfonylpiperazin-1-yl)pyridin-2-yl]amino}pyridin-4-yl)oxy]phenyl}-3-(4-fluorophenyl)-2,4-dioxo-1-(propan-2-yl)-1,2,3,4-tetrahydropyrimidine-5-carboxamide], the IC50 was found to be 1 nM at GST-MERTK 578-872 and 1.1 nM on HIS-AXL 473-End.
Consider `Cc1cc(Nc2cc(Oc3ccc(NC(=O)c4cn(C(C)C)c(=O)n(-c5ccc(F)cc5)c4=O)cc3F)ccn2)nc(N2CCN(S(C)(=O)=O)CC2)c1` [Example 136, N-{3-fluoro-4-[(2-{[6-(4-methanesulfonylpiperazin-1-yl)-4-methylpyridin-2-yl]amino}pyridin-4-yl)oxy]phenyl}-3-(4-fluorophenyl)-2,4-dioxo-1-(propan-2-yl)-1,2,3,4-tetrahydropyrimidine-5-carboxamide], for which the results for the IC50 at GST-MERTK 578-872 and on HIS-AXL 473-End were 3.9 nM and 1040 nM, respectively.
Consider `Cc1cnc(Nc2cc(Oc3ccc(NC(=O)c4cn(C(C)C)c(=O)n(-c5ccc(F)cc5)c4=O)cc3F)ccn2)nc1N1CCN(S(C)(=O)=O)CC1` [Example 137, N-(3-fluoro-4-[(2-{[4-(4-methanesulfonylpiperazin-1-yl)-5-methylpyrimidin-2-yl]amino}pyridin-4-yl)oxy]phenyl)-3-(4-fluorophenyl)-2,4-dioxo-1-(propan-2-yl)-1,2,3,4-tetrahydropyrimidine-5-carboxamide], for which the IC50 amounted to 3.6 nM on GST-MERTK 578-872 and 3.4 nM on HIS-AXL 473-End.
As to `CC(C)n1cc(C(=O)Nc2ccc(Oc3ccnc(Nc4ccc(C(F)(F)F)c(N5CCN(S(C)(=O)=O)CC5)n4)c3)c(F)c2)c(=O)n(-c2ccc(F)cc2)c1=O` [Example 138, N-{3-fluoro-4-[(2-{[6-(4-methanesulfonylpiperazin-1-yl)-5-(trifluoromethyl)pyridin-2-yl]amino}pyridin-4-yl)oxy]phenyl}-3-(4-fluorophenyl)-2,4-dioxo-1-(propan-2-yl)-1,2,3,4-tetrahydropyrimidine-5-carboxamide], the figures for the IC50 at GST-MERTK 578-872 and on HIS-AXL 473-End were 20 nM and 23 nM, respectively.
As to `COC(=O)N1CCN(c2nc(Nc3cc(Oc4ccc(NC(=O)c5cn(C(C)C)c(=O)n(-c6ccc(F)cc6)c5=O)cc4F)ccn3)ccc2C(F)(F)F)CC1` [Example 139], the IC50 at GST-MERTK 578-872 turned out to be 11 nM; at HIS-AXL 473-End, 77 nM.
Take `CC(C)n1cc(C(=O)Nc2ccc(Oc3ccnc(Nc4ccc(C(F)(F)F)c(N5CCN(S(=O)(=O)N(C)C)CC5)n4)c3)c(F)c2)c(=O)n(-c2ccc(F)cc2)c1=O` [Example 141]: the IC50 on GST-MERTK 578-872 is 17 nM; at HIS-AXL 473-End, 14700 nM.
